According to patent publication US20050281867A1, “Nitric oxide inducing agents” (priority 2003, published 2005):

How the values were obtained:
[1] = tested on: nitric oxide; experiment: Nitric oxide production / systemic NO levels in treated patients; assay type: in vivo, human
Description: Moreover, it was observed that a few patients who received treatment with an agent of the instant invention began to develop resistance due to down-regulation of the insulin receptor. This effect was reversed by co-administering low dose aspirin (15 mg) with the agent. Upon co-administration, the production of nitric oxide returned to normal within 30 minutes of treatment. While the instant agents work through the insulin receptor, aspirin appeared to be insulin-independent and was nitric oxide mediated. Accordingly, one embodiment of the instant methods is the co-administration, i.e., simultaneous or sequential, of low dose aspirin (e.g., ranging from 5-100 mg) with an agent of the instant invention. […] Expression of maspin, a serine protease inhibitor (serpin) known to be a potent anticancer protein, is severely impaired in breast cancer tissue. […] Similarly, production of alpha interferon-a, a widely used anticancer cytokine noted for its antiproliferative and anticancer property, is severely impaired in both malignant breast cancer tissue and non-malignant neutrophils in breast cancer. As with maspin, increases in nitric oxide levels increased production of alpha-interferon to normal ranges. By administering an agent of the instant invention, the auto immunity that is T-cell induced is improved through the neutrophils.

[2] = tested on: maspin and alpha interferon-a; experiment: Maspin and alpha interferon in breast cancer tissue and neutrophils of treated subjects; assay type: in vivo, human; conditions: malignant breast cancer tissue and non-malignant neutrophils in breast cancer
Text: Expression of maspin, a serine protease inhibitor (serpin) known to be a potent anticancer protein, is severely impaired in breast cancer tissue. […] Similarly, production of alpha interferon-a, a widely used anticancer cytokine noted for its antiproliferative and anticancer property, is severely impaired in both malignant breast cancer tissue and non-malignant neutrophils in breast cancer. As with maspin, increases in nitric oxide levels increased production of alpha-interferon to normal ranges. By administering an agent of the instant invention, the auto immunity that is T-cell induced is improved through the neutrophils.

[3] = tested on: wide variety of cancers; experiment: Topical treatment of cancer patients, overall statements; assay type: in vivo, human
Text: A total of 8,125 patients with different kinds of cancer participated in this study. These patients were divided into two groups. Blood samples were collected from 80 patients designated as Group I. These patients included 45 males between 20-65 years old, and 35 females between 25-55 years old. These patients were newly diagnosed patients with cancer who at the time of blood donation had not taken any medicine at least for 14 days and had not yet undergone any treatment of cancer including radiation or chemotherapy but opted for surgery. None of the patients had overt diabetes mellitus, systemic hypertension or suffered coronary artery disease at presentation. None of these patients had any other diagnosed life threatening condition.
Two categories of patients were included in Group II. The first category included 6,705 patients who had previously undergone all available cancer treatments including surgery, radiation and chemotherapy. At the time of participation in the study these patients had exhausted all therapeutic options and were under the care of private physicians and family members in their home. […] At the time of the participation in the study all patients, in the Group II in the second category had stopped taking treatments for cancer, such as chemotherapy and radiation, for at least 2 months. The diagnostic procedures and condition of the patients at presentation are described in Table 1. All institutionalized patients in group II were excluded from the study to avoid ambiguity. As in the case of Group I the patients with any other life threatening conditions or severe infection were also excluded from this group.
A control group of 150 patients were selected randomly from the Group II patients. […] Since the effect of the agents of the instant invention on the neutralization of IANOS antibody in vivo in cancer patients (responders) could be noticed by immunoblot technique (end-point) in 7 days, the patients in the placebo group received the vehicle for 7 days; the neutralization of the antibody and nitric oxide synthesis were determined. […]

[4] = tested on: insulin-activated nitric oxide synthase (IANOS); experiment: Assay of IANOS of human erythrocytes; assay type: biochemical
Description: Both biologic and non-biologic materials for were screened for their ability to activate human erythrocytes IANOS. […] The protein was purified to homogeneity from an aqueous extract (pH 7.4 buffer) by the combination of DEAE cellulose chromatography and SEPHADEX® gel filtration techniques.
Insulin-activated nitric oxide synthase (IANOS) activity of the erythrocyte suspension was carried out by determining the conversion of oxyhemoglobin to methemoglobin using standard methods. Purification of insulin activated nitric oxide synthase (from human erythrocyte membranes) was carried out by DEAE cellulose chromatography.

Compound	time until production of nitric oxide returned to normal ([1]; low dose aspirin (15 mg) co-administered with the agent, patients who developed resistance (insulin receptor down-regulation))	systemic NO levels ([1]; after administration)	alpha interferon-a [2]	maspin [2]	cancers in which particularly effective ([3]; non-Hodgkin's lymphoma, brain cancer, breast cancer with mastectomy, lung cancer (non-small cell))	comparative effect of both agents ([3]; pancreatic cancer and bone cancer)	effect against a wide variety of cancers ([3]; topical, cancer patients, as shown in Table 1)	activation of erythrocyte IANOS [4]
CC(=O)Oc1ccccc1C(=O)O [aspirin, reference compound]	≤ 30 min							
insulin		increase	increase	increase	particularly effective	equally effective	effective	potent activator
